Experimental data as given in publication PMC8397634 (Journal of Natural Medicines, 2021).
Like-named read-outs stand apart in the source and are kept apart here.

How the values were obtained:
α7 nAChR = settings: ref 2 (Alijevic, et al.); cited from earlier work
α4β2 nAChRs [1] = molecular target: T1, α4β2 nAChRs (Homo sapiens, UniProt P17787+P43681); experiment: In vitro α4β2 nAChR radioligand displacement binding assay; set-up: host or cells: SH-SY5Y cells (human recombinant), membrane preparation; settings: 10 µM single concentration; effect greater than 50% considered significant
T1 sequence (P43681 29-627 limits assumed): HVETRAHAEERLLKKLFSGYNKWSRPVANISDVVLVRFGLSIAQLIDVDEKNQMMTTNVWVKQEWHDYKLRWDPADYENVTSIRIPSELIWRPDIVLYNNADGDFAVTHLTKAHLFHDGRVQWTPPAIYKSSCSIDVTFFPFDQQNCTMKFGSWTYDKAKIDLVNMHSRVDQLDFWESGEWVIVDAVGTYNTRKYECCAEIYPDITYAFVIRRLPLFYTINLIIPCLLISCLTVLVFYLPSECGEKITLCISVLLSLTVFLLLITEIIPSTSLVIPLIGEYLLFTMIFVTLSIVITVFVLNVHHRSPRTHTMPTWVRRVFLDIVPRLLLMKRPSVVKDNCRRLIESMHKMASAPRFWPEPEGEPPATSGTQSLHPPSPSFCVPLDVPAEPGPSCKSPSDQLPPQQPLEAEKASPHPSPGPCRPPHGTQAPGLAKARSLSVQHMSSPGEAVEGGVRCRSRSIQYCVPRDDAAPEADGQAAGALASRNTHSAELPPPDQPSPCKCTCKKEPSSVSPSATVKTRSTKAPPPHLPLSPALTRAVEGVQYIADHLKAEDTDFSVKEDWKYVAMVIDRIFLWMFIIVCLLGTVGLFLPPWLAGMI
T1 sequence (P17787 26-502): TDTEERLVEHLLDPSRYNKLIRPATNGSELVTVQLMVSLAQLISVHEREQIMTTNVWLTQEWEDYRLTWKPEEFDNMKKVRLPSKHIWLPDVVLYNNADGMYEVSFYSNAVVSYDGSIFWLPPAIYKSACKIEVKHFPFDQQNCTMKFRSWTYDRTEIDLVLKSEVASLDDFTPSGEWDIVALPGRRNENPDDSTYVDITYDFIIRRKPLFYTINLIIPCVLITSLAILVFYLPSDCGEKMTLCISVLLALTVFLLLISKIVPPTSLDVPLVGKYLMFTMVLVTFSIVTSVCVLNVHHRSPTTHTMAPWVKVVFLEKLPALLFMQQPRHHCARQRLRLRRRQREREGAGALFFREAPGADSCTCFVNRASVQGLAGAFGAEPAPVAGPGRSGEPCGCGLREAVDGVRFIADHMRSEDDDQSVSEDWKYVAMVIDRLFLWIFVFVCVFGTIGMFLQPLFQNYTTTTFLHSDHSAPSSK
Method: (§1) All binding and functional assays for molecular target characterization were conducted by Eurofins Cerep SA (Celle-Lévescault, France) and Eurofins Panlabs Discovery Services Taiwan, Ltd. (New Taipei City, Taiwan) using their standard in vitro binding and functional assays (Online Source 2). The radioligand displacement binding assays employed the gold-standard filtration method using membrane preparations from stable cell lines expressing human or rodent target proteins to determine the interaction of the compounds with specific receptors, channels, and transporters. For this purpose, the competitive binding of test compounds against a [^125I]-, [^3H]-, or [^35S]-labeled agonist and/or antagonist was determined. The specific list of radiolabeled ligands and experimental conditions are summarized in Online Source 2. A single concentration of each compound (10 µM in 0.1% DMSO) was used for the screen. […] Negative values were considered to be an artifact arising from, for example, compounds interfering with the assay readout.
(§2) Assay Source Ligand Conc. Kd Non Specific Incubation Detection Bibl.

α4β2 nAChRs [2] = molecular target: T1, α4β2 nAChRs; experiment: In vitro nAChR functional assay (automated patch-clamp, CHO cells); format: cell-based
Method: Electrophysiological responses were recorded using an automated patch-clamp Patchliner Octo® system (Nanion Technologies, Munich, Germany) equipped with two EPC-10 Quadro patch-clamp amplifiers (HEKA Elektronik, Lambrecht, Germany) as described previously. Chinese hamster ovarian (CHO) cells stably expressing human α4β2 nAChRs (Charles River Laboratories, Wilmington, MA, USA) were used. All experiments were performed at room temperature (24 °C) and repeated at least three times. Data were analyzed using Patchmaster software (HEKA Elektronik). Offline data analysis was performed in Apache OpenOffice™ (v4.1.2; […]). Igor Pro software (v6.2.2.2; WaveMetrics, Lake Oswego, OR, USA) was used to determine EC50 values. […] The average values were then fitted to the Hill equation: I=Baseline+X^∧nH(Imax-Baseline)/X^∧nH+EC50^∧nH, where I is the current response, Baseline is the minimal current response, X is the agonist concentration, nH is the Hill coefficient, Imax is the maximal current, and EC50 is the agonist concentration producing half-maximal activation. […]

muscle-type nAChR = molecular target: T2, muscle-type nAChR (Homo sapiens, UniProt P02708+P07510+Q07001); experiment: Muscle-type nAChR radioligand binding (target profiling); settings: 10 µM single concentration; effect greater than 50% considered significant
T2 construct: TE671 cells; host or cells: TE671 cells (endogenous)
T2 sequence (P02708 21-457): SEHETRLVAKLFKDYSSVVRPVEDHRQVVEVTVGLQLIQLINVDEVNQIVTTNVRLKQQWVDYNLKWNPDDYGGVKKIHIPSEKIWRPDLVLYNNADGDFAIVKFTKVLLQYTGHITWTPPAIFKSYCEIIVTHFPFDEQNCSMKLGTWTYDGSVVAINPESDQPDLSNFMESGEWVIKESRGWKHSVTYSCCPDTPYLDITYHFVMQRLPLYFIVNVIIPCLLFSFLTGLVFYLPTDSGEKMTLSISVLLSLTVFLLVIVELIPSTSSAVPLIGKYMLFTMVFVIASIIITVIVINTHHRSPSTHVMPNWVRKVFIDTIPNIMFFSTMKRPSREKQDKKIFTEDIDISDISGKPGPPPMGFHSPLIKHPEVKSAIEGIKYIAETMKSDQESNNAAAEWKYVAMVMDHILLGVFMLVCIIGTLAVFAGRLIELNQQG
T2 sequence (Q07001 22-517): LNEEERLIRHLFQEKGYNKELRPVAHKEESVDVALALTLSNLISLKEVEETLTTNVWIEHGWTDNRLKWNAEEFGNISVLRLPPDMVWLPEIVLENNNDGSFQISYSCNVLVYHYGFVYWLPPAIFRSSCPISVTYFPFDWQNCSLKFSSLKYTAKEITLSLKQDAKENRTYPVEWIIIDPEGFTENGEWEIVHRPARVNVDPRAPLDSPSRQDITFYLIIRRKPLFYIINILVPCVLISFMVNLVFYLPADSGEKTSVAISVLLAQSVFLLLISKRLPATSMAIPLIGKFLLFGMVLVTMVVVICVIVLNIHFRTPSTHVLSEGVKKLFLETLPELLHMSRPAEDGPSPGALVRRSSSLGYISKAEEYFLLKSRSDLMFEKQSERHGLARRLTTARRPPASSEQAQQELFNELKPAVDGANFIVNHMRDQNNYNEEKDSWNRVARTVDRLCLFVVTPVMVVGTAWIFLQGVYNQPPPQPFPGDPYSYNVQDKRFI
T2 sequence (P07510 23-517): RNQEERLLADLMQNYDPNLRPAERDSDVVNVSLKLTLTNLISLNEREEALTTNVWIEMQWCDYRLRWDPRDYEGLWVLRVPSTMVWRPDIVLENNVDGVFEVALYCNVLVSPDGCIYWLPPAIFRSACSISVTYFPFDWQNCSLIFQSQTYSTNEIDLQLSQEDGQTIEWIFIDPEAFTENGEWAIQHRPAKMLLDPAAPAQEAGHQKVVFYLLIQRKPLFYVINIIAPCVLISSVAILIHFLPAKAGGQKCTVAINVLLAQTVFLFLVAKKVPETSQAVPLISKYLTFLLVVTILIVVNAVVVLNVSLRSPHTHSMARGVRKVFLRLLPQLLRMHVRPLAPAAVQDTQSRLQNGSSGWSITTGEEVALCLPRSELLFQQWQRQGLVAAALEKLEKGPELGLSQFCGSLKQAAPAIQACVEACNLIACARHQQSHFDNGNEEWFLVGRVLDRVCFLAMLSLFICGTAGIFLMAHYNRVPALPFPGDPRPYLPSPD
Method: as §1, §2

[3] = test system: other molecular targets (175 in vitro binding and enzymatic assays); experiment: In vitro molecular target profiling (175 binding and enzymatic assays); settings: 10 µM single concentration; 175 assays; effect greater than 50% considered significant
Method: as §1
3.1. Experimental Conditions
In Vitro Pharmacology: Binding Assays
as §2

[4] = Brain bioavailability assay in zebrafish (UPLC-HRMS of brain homogenate); format: in vivo, Danio rerio; settings: both sexes, zebrafish (Danio rerio), in vivo, 1 mg/L; zebrafish brain after 20-min exposure; linear relationship assumed; mean ± SEM; read-out: Relative brain level per 1 mg/L compound
Method: Four fish (2 males and 2 females) per compound were used to determine the brain bioavailability of the compounds. Immediately after the 20-min compound treatment, the zebrafish were rinsed briefly to remove excessive compound on their body and terminated with 250 mg/L tricaine (CAS No. 886-86-2; Sigma). The fish were decapitated at the level of the gills using a surgical knife. The head was turned dorsal side down, and soft tissue was removed from the ventral side of the skull until the base of the skull was exposed. The skull was broken open and the bone from the ventral side of the brain was removed. The brain was then placed in a microcentrifuge tube, weighed, snap-frozen in liquid nitrogen, and stored at – 80 °C until the analysis.
Briefly, on the day of analysis, the brain samples were defrosted, resuspended in a methanol solution (2:1 [v/v] methanol:MilliQ water), and homogenized with vigorous agitation and ultrasonication (5 min each). The homogenate was centrifuged at 15,000 × rpm for 10 min, and the supernatant was analyzed using a UPLC-Q Exactive Orbitrap-HRMS system (Thermo Fisher Scientific™, Bremen, Germany). Chromatographic separation was achieved on a Synergi™ 4-µm Hydro-RP 80 Å, L.C. Column (250 × 4.6 mm; Phenomenex Inc., Torrance, CA, USA) with 0.1% formic acid in water (mobile phase A) and 0.1% formic acid in acetonitrile (mobile phase B). A gradient method at a 500 µL/min flow rate was applied as follows: (1) 5% B for 1 min, and (2) increase to 95% B over 7 min and hold for 2 min. The injection volume was 5 μL. The mass spectrometer was operated in electrospray positive mode (ESI, Thermo Fisher Scientific), while data acquisition was performed using the parallel reaction monitoring (PRM) and full scan modes. The source settings were set as follows: sheath gas flow rate = 60 psi; aux gas flow rate = 20 arbitrary units; spray voltage = 3.5 kV; capillary temperature = 280 °C; and sweep gas flow rate = 1. The full scan mode parameters were set as follows: resolution = 35,000 FWHM at 200 m/z; AGC target = 1E6; maximum injection time = 110 ms; and scan range = 100–350 m/z. The chromatographic and Orbitrap MS parameters for PRM analysis were the same as those in the full scan mode, except for: AGC target = 2E5; maximum IT = 60 ms; and resolution = 17,500 FWHM at 200 m/z. The XCalibur™ v4.0.27.19 software (Thermo Fisher Scientific) and TraceFinder™ v4.1 Forensic (Thermo Fisher Scientific, San José, CA, USA) were used for system control and data processing, respectively. The Q Exactive 2.8 SP 1 software (Thermo Fisher Scientific) was used to control the mass spectrometer.

[5] = test system: zebrafish (Danio rerio; strain AB)
Method: The NTT conditions closely matched the most commonly used conditions described by. In brief, adult male and female wild-type zebrafish were treated with the compounds for 20 min in a final volume of 50 mL in a 250-mL treatment beaker, one fish at a time. The fish were briefly rinsed in fresh system water, and then immediately transferred to a trapezoidal tank (14.6-cm height × 5.5-cm width × 27.9-cm top length and × 23.6-cm bottom length) filled with 1.5 L system water. The behavior of the fish was monitored for the next 5 min using the Noldus EthoVision XT system (Wageningen, Netherlands), with the camera placed approximately 1 m from the test tank. The tanks were uniformly illuminated from above at approximately 200 lx, reported to be the optimal illumination condition for NTT [23]. Background noise was kept at a minimum during the test. All experimental parameters were monitored closely and kept as consistent as possible throughout the study. The part of the tank filled with water (11.5-cm height) was virtually divided into top, center, and bottom of equal heights (approximately 3.8 cm per segment) for the analyses. The average time spent at the top and bottom portions of the tank was analyzed to determine the anxiety-like behavior of fish. The average total distance traveled and freezing time (as defined by a complete cessation of movement except for gills and eyes) were calculated to determine the effects of the compounds on the general behavior of fish. The analyses were conducted for 1-min time bins. To account for any day-to-day variability in fish behavior, fish treated with vehicle were tested on the same day as the compounds. […] A minimum of 12 fish (6 females and 6 males) per condition were used for the study. The actual sample size per condition is indicated in Online Resource 1. […] The experimenters were blind to the test conditions. The NTT was validated with buspirone, a clinical anxiolytic drug, as previously described.
If not, the concentration was reduced until no obvious signs of tolerability problems were observed. […] The concentrations were calculated based on the free base molecular weight.
Two-way repeated measures analysis of variance (ANOVA) with Dunnett post hoc was used for the 1-min binned analysis of the zebrafish NTT data. Treatment was one factor, and time was the second factor. […] Thus, male and female datasets were combined for the final analyses. […] The EC50 values were determined by applying the nonlinear regression analysis. All analyses were conducted using GraphPad Prism v8.2.1 (GraphPad Software, San Diego, CA, USA).

SMILES | α7 nAChR agonist activity (α7 nAChR) | Binding to α4β2 nAChR in target profiling (α4β2 nAChRs [1]) | Emax (α4β2 nAChRs [2]; CHO, read-out: % activation of α4β2 nAChR (normalized to nicotine)) [%] | Binding to muscle-type nAChR in target profiling (muscle-type nAChR) | Binding to or regulation of other molecular targets [3] | concentration at 20 min [4] [ng/g] | Freezing time during NTT ([5]; 0.3 mg/L) | Concentration effective in reducing anxiety-like behavior in NTT ([5]; 20-min treatment) [mg/L] | Time spent at the bottom of the tank during NTT ([5]; highest concentration tested (10 mg/L), 20-min treatment) | Total distance traveled during NTT ([5]; lowest (0.3 mg/L) and highest (10 mg/L) concentrations) | % activation of α4β2 nAChR (normalized to nicotine) (α4β2 nAChRs [2]) [%] | Concentration effective in reducing anxiety-like behavior in NTT ([5]; in vivo) [mg/L]
C1=CCC(c2cccnc2)NC1 (racemic) [Anatabine, ( ±)-Anatabine] | weak α7 nAChR agonist | specific binding | 80 | specific binding | did not bind or regulate the activities of other molecular targets | 440 ± 150 | increased the freezing time during the first 3 min | 10 | significantly decreased the time spent at the bottom | slight but significant reduction in the total distance traveled | – | –
CN1CCC[C@H]1c1cccnc1 [Nicotine, (–)-nicotine, reference compound] | weak α7 nAChR agonist | specific binding | – | specific binding | did not bind or regulate the activities of other molecular targets | 700 ± 140 | – | – | – | – | 100 | 0.3
